Laboratory results from patent US6383528B1 (Yuyu International Co., Ltd., priority 1997, dated 2002).

Tests used:
[1] = tested on: platelet aggregation induced by 1×10^−5 M ADP; assay: Ex vivo platelet aggregation suppression effect; conditions: female rats, ADP 1×10^−5 M
Source text: Ex Vivo Platelet Aggregation Suppression Effect
One hour after the final administration on the specimen, the rats were anesthetized. For preventing blood coagulation, the blood sample was collected using a syringe with the anti-coagulant, 3.8% Sodium Citrate solution. Thereafter, the effects oil the platelet aggregation induced by 1×10^−5 M ADP were studied.

[2] = tested on: leukocytes in rat; assay: Leukocyte number and differential ratios after 16 weeks of administration and 2 weeks of withdrawal; assay type: in vivo; conditions: rats
Description: Rats were administered with the same regimens as in Experiment 6 for the duration of 16 weeks, and those with two weeks of withdrawal were separately maintained.

[3] = tested on: thrombus formation at the cotton thread in the A-V Shunt; assay: Thrombus formation by arterio-venous shunt (A-V Shunt); assay type: in vivo; conditions: female rats; for Thrombus Dry Condition Suppression Rate (%) / Thrombus Wet Condition Suppression Rate (%): vs control rats
Description: Thrombus Formation by Arterio-Venous Shunt (A-V Shunt hereinafter) and the Effects on the Platelet Aggregation […] Thereafter, Table 7 was tabulated with the measured weights of the thrombus formation at the cotton thread in the A-V Shunt. At this point, the weights of thrombus were measured in terms of the wet weight immediately after the experiment, and dry weight after complete drying.

[4] = tested on: femur marrow cells; assay: Number of bone marrow cells after 16 weeks of administration; assay type: in vivo; conditions: rats, ticlopidine vs control, combinations vs ticlopidine alone
Description: A Change in the Number of Bone Marrow Cells after the Administration of the Pharmaceutical Composition for the Duration of 16 Weeks. […] Thereafter, the number of bone marrow cells was measured. In detail, for the purposes of measuring the numbers of the precursor cells of leukocytes, the femur part was incised with the elimination of the surrounding muscle tissues. Then, both sides of epiphysis were incised, from which approximately 2 cm of femur was obtained. […] After removing the supernatant, 1 ml of saline solution was added to the precipitated cell layer. […] Then, removing the supernatant once again, 0.5 ml of saline solution was added to the precipitated cell layer and mixed. The drop therefrom was added to the Cytometer, and the number of cells in the RRRRR 5 part (4 corners and the center) was counted. Using the following formula, the number of marrow cells were calculated: Counted Number×50×10×10^3=Number of white blood cell precursor/femur.

[5] = tested on: femur marrow cells; assay: Histological examination of the marrow cells after 16 weeks and 2 weeks of withdrawal; assay type: in vivo; conditions: rats, 16 weeks then 2 weeks of withdrawal, femur marrow histology
Source text: Histological Examination of the Marrow Cells after the Administration of the Pharmaceutical Composition for 16 Weeks, Followed by 2 Weeks of Withdrawal
Thereafter, the marrow cells were histolosically examined.

[6] = tested on: femur marrow cells; assay: Histological examination of the marrow cells after 16 weeks; assay type: in vivo; conditions: rats, femur marrow histology ×400
Source text: Histological Examination of the Marrow Cells after the Administration of the Pharmaceutical Composition for 16 Weeks […] Thereafter, the marrow cells was histologically examined. […] The femur so extracted was decalcified with the decalcification solution and embedded with paraffin after the ordinary course of the histological process. The femur tissue so embedded with paraffin was sliced at a thickness of 4 μm, followed by hematoxylin and eosins. Thereafter, the slide was examined with the light microscope at 400×.

[7] = patients, first 3 months of treatment; cited from earlier work
[8] = tested on: platelet aggregation induced by ADP 3×10^−5M in PRP; assay: Ex vivo platelet aggregation in rats with A-V Shunt; conditions: for Aggregation Rate (%) 2 Minutes / Aggregation Rate (%) 3 Minutes / Aggregation Rate (%) Maximum: control maximum set at 100
Description: The Effect on Platelet Aggregation in the A-V Shunt of Rats
After the administration of the same regimens used in Experiment 3 for the duration of 9 days, the weights of thrombus formations at the A-V Shunt were measured as the sample of the blood therefrom was collected for the purposes of studying the effect on the ex vivo platelet aggregation after the AV-Shunt. In particular, to the PRP (supernatant after the centrifuge of the blood sample for 10 minutes at 200×g) prepared from the respective blood sample, ADP 3×10^−5M, which is the platelets aggregation inducer, were added for the purposes of inducing aggregation.
In order to study the ex vivo platelet aggregation effect of the rats' blood without A-V Shunt, the concentration of ADP lower than 1×10^−5M was used. With the maximum platelet aggregation rate of rats in the control group with A-V Shunt set at 100, various aggregation rates were compared.

[9] = tested on: mouse acute thrombus model; assay: Recovery rate in the mouse acute thrombus model (collagen + epinephrine); assay type: in vivo; conditions: for Recovered Mouse, Number of Mouse: recovery within 15 minutes
Description: An Increase in Recovery Rate in the Mouse Acute Thrombus Model
One hour after the final administration of the regimen, the mixed solution containing collagen and epinephrine (collagen 1100 μg+epinephrine 110 μg/10 ml of saline solution/kg) was injected into the vein in the tail. The status of paralysis or death from pulmonary infarction, and the recovery therefrom were duly recorded.
As in the experiment above if the mixed solution comprising collagen and epinephrine was infected into the vein a large of amount of thrombus was generated shortly thereafter with the result of an occlusion in the pulmonary artery. Within one minute after the injection, almost every part of the body was in paralysis with the enlargement of a pupil. Dyspnea occurred followed by a seizure. Within 5 minutes, approximately 70˜80% of the mouse were deceased. As to the remainder, almost every mouse were dead within 15 minutes or in a continued paralysis.

[10] = tested on: leukocytes in rat; assay: Leukocyte number and differential ratios after 16 weeks of administration; assay type: in vivo; conditions: rats
Description: Bellefonte, Pa.). […] The changes due to the dosage amount and blending ratio were set as follows. […] On the other hand, one tablet of the Ginkgo biloba extract is 40 mg, 80 mg, 120 mg with a daily dosage of 120 mg to 240 mg. […] [table] […] After anesthesia, blood was collected through the abdominal aorta, and the number of white blood cells were counted using the Coulter Counter. Using the cytochemical dyeing method, the ratios of neutrophil, eosinophil, basophil, macrophage and lymphocytes were measured.

[11] = tested on: femur marrow cells; assay: Number of bone marrow cells after 16 weeks of administration and 2 weeks of withdrawal; assay type: in vivo; conditions: rats, 16 weeks then 2 weeks of withdrawal; combination 5:2
Description: The Changes in the Number of the Bone Marrow Cells after 16 Weeks of the Administration of the Pharmaceutical Composition, Followed by 2 Weeks of Withdrawal
Thereafter, the number of bone marrow cells at femur was measured.

[12] = tested on: female rats; assay: Prolongation of the bleeding time (tail incision); assay type: in vivo; conditions: for Bleeding Time: female rats
Description: Prolongation of the Bleeding Time
One hour after the final administration of the regimen, 250 mg/kg of ketamine was injected into muscle tissue for anesthesia. 2 mm from the tail end was incised with the razor blade, after which the blood therefrom was blotted with the filter paper at the interval of 5 second to the point of the hemorrhage stoppage.

[13] = 16 weeks P.O. then 2 weeks of withdrawal, 300 or 300 + 120 mg/kg/day, mean ± S.E.
[14] = 50 mg/kg/day for 9 days, 50 mg/kg/day
[15] = 50 mg/kg/day for 9 days, listed as Ticlopidine (T), 50 mg/kg/day
[16] = 100 mg/kg/day for 9 days, 100 mg/kg/day
[17] = 100 mg/kg/day for 9 days, listed as Ticlopidine (T), 100 mg/kg/day
[18] = 50 mg/kg/day for 9 days, listed as Ticlopidine (T)
[19] = 100 mg/kg/day for 9 days, listed as Ticlopidine (T)
[20] = 16 weeks P.O., ticlopidine 300 mg/kg/day alone or + Ginkgo extract 60/120/240 mg/kg/day, mean ± S.E.

## Clc1ccccc1CN1CCc2sccc2C1 [Ticlopidine, 5-[(2-chlorophenyl)methyl]-4,5,6,7-tetrahydrothieno[3,2-C]pyridine]
[1]; 100 mg/kg/day for 3 days, 100 mg/kg/day
  Suppression Rate (%) (Avg + SD): 67%
[1]; 100 mg/kg/day for 3 days, listed as Ticlopidine (T), 100 mg/kg/day
  Suppression Rate (%) (Avg + SD): 67.06 ± 16.25 %
[1]; 200 mg/kg/day for 3 days, 200 mg/kg/day
  Suppression Rate (%) (Avg + SD): 98%
[1]; 200 mg/kg/day for 3 days, listed as Ticlopidine (T), 200 mg/kg/day
  Suppression Rate (%) (Avg + SD): 97.97 ± 4.53 %
[2]; [13]
  Basophil (%): 0.3 ± 0.1%
  Eosinophil (%): 2.7 ± 0.2%
  Lymphocyt (%): 77.8 ± 0.5%
  Macrophage (%): 3.5 ± 1.0%
  Neutrophil (%): 15.9 ± 1.7 %
[2]; 16 weeks P.O. then 2 weeks of withdrawal, ticlopidine 300 mg/kg/day alone or + Ginkgo extract 120 mg/kg/day (5:2), mean ± S.E.
  Total Leukocyte (×10^3/μl): 10.3 ± 1.2 ×10^3/μl
[2]; 16 weeks then 2 weeks of withdrawal
  number of neutrophil / leukocytes after withdrawal compared with the control group: normal recovery
[3]; 50 mg/kg/day for 9 days
  Thrombus Dry Condition Weight: 9.53 mg
  Thrombus Wet Condition Weight: 35.03 mg
[3]; [14]
  Thrombus Dry Condition Suppression Rate (%): 25%
  Thrombus Wet Condition Suppression Rate (%): 26%
[3]; [15]
  Thrombus Dry Condition Suppression Rate (%): 25 ± 21%
  Thrombus Wet Condition Suppression Rate (%): 26 ± 19%
[3]; 100 mg/kg/day for 9 days
  Thrombus Dry Condition Weight: 8.78 mg
  Thrombus Wet Condition Weight: 30.45 mg
[3]; [16]
  Thrombus Dry Condition Suppression Rate (%): 31%
  Thrombus Wet Condition Suppression Rate (%): 36%
[3]; [17]
  Thrombus Dry Condition Suppression Rate (%): 31 ± 12%
  Thrombus Wet Condition Suppression Rate (%): 36 ±10%
[4]
  number of white blood cell precursor at marrow (femur marrow cells, FIG. 1), words: significant reduction
[5]
  Megakaryocyte: increased almost to the point of the control group
[6]
  Band-granulocyte: no change
  Cellularity (density of the marrow cells): malignant vacuolation
  Megakaryocyte: decreased
  Myelocyte: significantly decreased
[7]
  incidence rate of toxicity (neutropenia, agranulocytosis): 0.8%
[8]; 50 mg/kg/day for 9 days
  Time (Minute) Maximum (time to maximum aggregation): 1.8 min
  Time (Minute) Total (complete de-aggregation): 4.33 min
  Aggregation Rate (%) 2 Minutes: 74%
  Aggregation Rate (%) 3 Minutes: 45%
  Aggregation Rate (%) Maximum: 78%
[8]; [18]
  Aggregation Rate (%) 2 Minutes: 74.4%
  Aggregation Rate (%) 3 Minutes: 45.8%
  Aggregation Rate (%) Maximum: 78.2%
[8]; 100 mg/kg/day for 9 days
  Time (Minute) Maximum (time to maximum aggregation): 1.5 min
  Time (Minute) Total (complete de-aggregation): 3.4 min
  Aggregation Rate (%) 2 Minutes: 62%
  Aggregation Rate (%) 3 Minutes: 21%
  Aggregation Rate (%) Maximum: 72%
[8]; [19]
  Aggregation Rate (%) 2 Minutes: 62.9%
  Aggregation Rate (%) 3 Minutes: 21.4%
  Aggregation Rate (%) Maximum: 72.6%
[9]; 50 mg/kg/day for 3 days
  Recovered Mouse, %: 38%
  Recovered Mouse, Number of Mouse: 6
[9]; 100 mg/kg/day for 3 days
  Recovered Mouse, %: 47%
  Recovered Mouse, Number of Mouse: 7
[10]; 16 weeks
  eosinophil, basophil, macrophage or lymphocyte compared with the control group: not significant differences
  white blood cells in the blood compared with the control group: slight tendency of a decrease
[10]; 16 weeks P.O. in drinking water, ticlopidine 300 mg/kg/day alone or + Ginkgo extract 60 (5:1), 120 (5:2), 240 (5:4) mg/kg/day, mean ± S.E.
  Total Leukocyte (×10^3/μl): 9.3 ± 1.3 ×10^3/μl
[10]; [20]
  Basophil (%): 1.7 ± 0.2%
  Eosinophil (%): 2.0 ± 0.4%
  Lymphocyte (%): 80.4 ± 1.6%
  Macrophage (%): 5.5 ± 0.8%
  Neutrophil (%): 10.5 ± 1.1 %
[10]; 16 weeks P.O., ticlopidine 300 mg/kg/day alone or + Ginkgo extract 60/120/240 mg/kg/day, mean ± S.E., listed as ticlopidine
  Neutrophil (%): 10.5±1.1%
[11]
  number of marrow cells at femur (FIG. 2), words: recovered to the normal level
[12]; 50 mg/kg
  bleeding time increase from that in the control group: 1.5 times
[12]; 100 mg/kg
  bleeding time increase from that in the control group: 2 times
[12]; 50 mg/kg/day for 5 days
  Bleeding Time: 1546 ± 332 s
[12]; 100 mg/kg/day for 5 days
  Bleeding Time: 2023 ± 872 s
